Data published in patent US20070167526A1, “Topical mecamylamine formulations for ocular administration and uses thereof” (priority 2005, published 2007).
Where a name gives a salt, the structure may show the parent alone. One block for each compound: values may come before it.

Assays:
endothelial nAChRs = settings: in vitro; endothelial cells; cited from earlier work
[1] = system: eyes of New Zealand White rabbits; assay: Pupil diameter, pupillary response and mortality observations after topical ocular instillation in rabbits (Example 10); settings: rabbit, in vivo
Experimental: The objective of this study was to evaluate the ocular pharmacokinetics of a 2% Mecamylamine in a GELRITE solution up to 6 hours following topical instillation into the eyes of New Zealand White rabbits. Nine New Zealand White female rabbits of minimum age of 9 weeks and weight 2-3 kg were obtained from The Rabbit Source (Ramona, Calif.) were used in the study.
On day 1, 2 drops of 50 μL of mecamylamine or vehicle were administered topically into the appropriate eye(s) of each animal as described in Table 13. The time of each dose administration was recorded.

[2] = Ocular bioavailability following intravenous administration (Example 2); assay type: in vivo, New Zealand White rabbit; settings: rabbit
Source text: This study was designed to model the ocular bioavailability of mecamylamine when administered systemically. Rabbit eyes are the preferred model for in vivo modeling of ocular drugs, however, the rabbit is not the subject of choice for modeling oral bioavailability. However, systemic administration does emulate orally administered mecamylamine to a reasonable approximation since mecamylamine has rapid absorption and high oral bioavailability. Therefore, intravenous injection was used to model ocular bioavailability of mecamylamine administered systemically, in order to determine the deposition of mecamylamine to the plasma, vitreous and posterior tissues (retina/choroid) of the eye from the blood.
The study comprised 2 groups (each N=6, 12 rabbits total) of male NZW (New Zealand White) rabbits weighing approximately 2.5-3 kg and obtained from Kralek Farms (Turlock, Calif.). Mecamylamine solution, prepared as described in Example 1, at a dose of 15 mg/kg was delivered via i.v. infusion as either a short infusion (1 hr) or slow infusion (6 hr) in rabbits sedated by ketamine/xylazine, with the slow infusion intended to model controlled systemic release of the mecamylamine.
For both groups, samples of the vitreous(≧0.1 ml) and plasma were withdrawn at 6 time points: pre-dose, 30 min, 1, 2, 4, and 6 hr. At 6 hours, all animals were sacrificed and vitreous and retinal tissues were collected. The total amount of mecamylamine administered during each infusion was the same, based on the weight of the individual rabbit.
The concentrations of mecamylamine present in the various samples were analyzed as described in Example 6, below.

in vivo = settings: rabbit, in vivo
Experimental: As used herein, the term “topically administered to a rabbit eye,” and cognates thereof, refers to the administration of a particular mecamylamine formulation, including formulations of pharmaceutically acceptable salts of mecamylamine, by applying 100 μL of the mecamylamine formulation to the cornea of each eye (2 drops of 50 μL each), wherein at the time of application the bottom eyelid is separated from the surface of the eye to make a pocket to ensure the entire dose is retained in contact with the eye. When the concentration of mecamylamine in plasma and in the retinal/choroidal tissue is to be measured in connection with the calculation of the ratio of the mecamylamine concentration in the retina/choroid versus the concentration of mecamylamine in plasma, the concentration of each is determined 1 hour after application of the formulation. The amount of mecamylamine present in plasma and the retina/choroid is determined by LC/MS/MS using internal standards of dextromethorphan and diphenhydramine and a standard of known concentration of mecamylamine. An exemplary method of administration of the topical formulation of mecamylamine is provided in Example 5. An exemplary LC/MS/MS method for determining the ratios described herein is given in detail in Example 6. When the mean maximum concentration of mecamylamine in plasma is to be determined, the concentration is again determined as described above and in Example 6. The term “mean maximum concentration of mecamylamine,” and its cognates, as used herein refers to the mean maximum concentration of mecamylamine measured in plasma when monitored over a 6 hour time period after administration of the formulation. When the mean total concentration of mecamylamine in plasma is to be determined, the concentration is again determined as described above and in Example 6. The term “total concentration of mecamylamine in plasma measured as the area under the curve,” (AUC) and cognates thereof, refers to summation of the areas under plot of the drug plasma versus time using a simple trapezoidal method with drug plasma time points taken to include 1, 3 and 6 hours after topical administration. Determination of AUC for corneal tissue, retinal/choroid tissue and aqueous humor is determined similarly. When the concentration of mecamylamine in plasma and in the corneal tissue is to be measured in connection with the calculation of the ratio of the mecamylamine concentration in the cornea (or aqueous humor) versus the concentration of mecamylamine in plasma, the concentration of each is determined 1 hour after application of 50 μl of the formulation. The amount of mecamylamine present in plasma and the cornea (or aqueous humor) is determined by LC/MS/MS using internal standards of dextromethorphan and diphenhydramine and a standard of known concentration of mecamylamine. An exemplary method of administration of the topical formulation of mecamylamine is provided in Example 5. An exemplary LC/MS/MS method for determining the ratios described herein is given in detail in Example 6.
A single dose of a polymer-free solution, gellan gum formulation and hypromellose formulation containing 3% mecamylamine hydrochloride, was instilled in the eyes of rabbits (Dutch-belted male rabbits (Convance, Denver, Pa.) minimum age 2 months and with weights of 1.6 to 1.8 kg). Two animals were euthanized 30 minutes, 1 hour or 3 hours after dosing.
Sample of blood and ocular tissue (obtained as described in previous examples) were analyzed for mecamylamine concentration using an LC MS/MS method up to 3 hours after dosing.
The area-under-the-curve (AUC) was calculated using a trapezoidal rule on a population pharmacokinetic basis (see Table 9).

Compound: CN1CCCC1c1cccnc1 (stereo not shown) [nicotine]
concentrations at which the maximal effect of nicotine occurs (endothelial nAChRs): 10 to 100 nM

Compound: CNC1(C)C2CCC(C2)C1(C)C (stereo not shown) [mecamylamine hydrochloride]
pupil diameter and pupil diameter response to light (mydriasis) [1]: did not result in significant changes in pupil diameter or pupil diameter response to light
mean maximum concentration of mecamylamine in plasma ([2]; long i.v. infusion (FIG. 2)): greater than 500 ng/mL
mean maximum concentration of mecamylamine in plasma ([2]; short i.v. administration (FIG. 1)): > 1500 ng/mL

Aqueous Humor AUC (in vivo): 7,355 ng/mL*hr
Cornea AUC (in vivo): 114000 ng·h/g
Plasma AUC (in vivo): 61 ng·h/mL
Ratio Aqu H:plasma (AUC) (in vivo): 120
Ratio Cornea:Plasma (AUC) (in vivo): 1,868:1
Ratio Retina/Choroid:Plasma (AUC) (in vivo): 291:1
Retina/Choroid AUC (in vivo): 17800 ng·h/g
Mecamylamine AUC, Anterior sclera (in vivo; topical or ocular): 32790 ng·h/g
Mecamylamine AUC, Aqueous humor (in vivo; topical or ocular): 7355 ng·h/mL
Mecamylamine AUC, Conjunctiva (in vivo; topical or ocular): 114398 ng·h/g
Mecamylamine AUC, Cornea (in vivo; topical or ocular): 113938 ng·h/g
Mecamylamine AUC, Extraocular muscle (in vivo; topical or ocular): 31236 ng·h/g
Mecamylamine AUC, Iris-ciliary body (in vivo; topical or ocular): 114813 ng·h/g
Mecamylamine AUC, Lens (in vivo; topical or ocular): 1064 ng·h/g
Mecamylamine AUC, Optic Nerve (in vivo; topical or ocular): 11515 ng·h/g
Mecamylamine AUC, Posterior sclera (in vivo; topical or ocular): 23638 ng·h/g
Mecamylamine AUC, Retina/Choroid (in vivo; topical or ocular): 17804 ng·h/g
Mecamylamine AUC, Vitreous humor (in vivo; topical or ocular): 335 ng·h/mL
Compound: HPMC
